Structures are written as SMILES.

One test deals with T1, IRG1 (Homo sapiens, UniProt A6NK06).
T1 construct: Human monocytes, isolated from peripheral blood and differentiated into macrophages; endogenous in cells; host or cells: human monocyte-derived macrophages (hMDMs), M-CSF differentiated, LPS-stimulated
T1 sequence (A6NK06 1-481): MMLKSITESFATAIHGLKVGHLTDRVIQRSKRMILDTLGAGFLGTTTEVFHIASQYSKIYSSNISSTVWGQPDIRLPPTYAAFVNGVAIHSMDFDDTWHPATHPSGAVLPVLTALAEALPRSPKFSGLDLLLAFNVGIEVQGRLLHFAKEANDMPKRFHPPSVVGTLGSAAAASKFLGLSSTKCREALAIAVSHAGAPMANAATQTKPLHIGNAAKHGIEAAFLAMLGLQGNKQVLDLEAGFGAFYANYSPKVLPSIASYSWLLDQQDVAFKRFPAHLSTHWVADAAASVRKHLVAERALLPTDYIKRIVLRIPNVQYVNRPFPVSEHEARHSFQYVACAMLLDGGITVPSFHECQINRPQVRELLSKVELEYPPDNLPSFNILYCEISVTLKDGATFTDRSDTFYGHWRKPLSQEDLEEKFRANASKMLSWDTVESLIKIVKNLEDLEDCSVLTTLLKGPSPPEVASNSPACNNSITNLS
As to the kind of experiment: Itaconic acid synthesis by LPS-stimulated macrophages (inhibition of IRG1), GC-MS. The class given is cell-based. The settings on record: LPS-stimulated hMDMs, 50, 100, 500 μM, LPS 8 hrs. The procedure:
Inhibition of IRG1. Itaconic acid levels are a measure of IRG1 expression/activity. To determine the activity of IRG, hMDMs were stimulated with 100 ng/mL LPS for 8 hrs in the presence or absence of the therapeutic agent. Gas chromatography-mass spectroscopy (GC-MS) was used to estimate the intracellular and extracellular concentration of the itaconic acid. In a typical assay, 1-5×10^6 cells were plated onto a 6-well plate and allowed to adhere overnight. The cells were then stimulated with 0.1-1 μg/mL LPS in the presence or absence of the compound of interest for 8 hrs. The cells were then washed and metabolites were extracted using methanol/water and acetonitrile additions. The aqueous phase of the mixture was dried and metabolites present were derivatized prior to the detection by GC-MS.
Itaconic Acid Synthesis by LPS-Stimulated Macrophages after Treatment with Compound (6). Human monocytes, isolated from peripheral blood and differentiated into macrophages in the presence of 100 ng/mL monocyte colony-stimulating factor (M-CSF) for 5 days, were plated onto a 6-well plate at a density of 1×10^6 cells/well. The cells were allowed to adhere overnight. […] Derivatized metabolites were analyzed by GC-MS. The amount of itaconic acid present in the samples was determined after peak integration. […]

The subject of a further test is hCD8^+ T cells. As to the kind of experiment: Proliferation of TCR-activated hCD8+ T cells, CFSE dilution. The settings on record: 10 nM, compared to untreated TCR-activated control cells. The class given is cell-based, human. The procedure:
Augmentation of CD8^+ T Cell Proliferation. Naïve hCD8^+ T cells were isolated from commercially available buffy coats using magnetic separation and the appropriate kit from Miltenyi Biotec. Cells were then subject to TCR activation using a cocktail of anti-CD2/anti-CD^3/anti-CD28 antibodies. Untreated control and treated cells were included in the experiment. The cells were cultured for 72 hrs in TexMACS media (Miltenyi Biotec) without IL-2 and for an additional 48 hrs in TexMACS media containing 20U human IL-2/mL. Cell division was assessed by flow cytometry using the carboxyfluorescein succimidyl ester (CFSE) dilution method.

Test [1] deals with CT26 mouse colorectal tumors. As to the kind of experiment: Survival and tumor growth of CT26 tumor-bearing mice. The class given is in vivo, C57BL/6 mice. On the procedure: In Vivo Anti-Tumor Effect. The anticancer properties of the therapeutic agent were evaluated in vivo by determining the ability of the agent to suppress tumor growth and/or increase survival of tumor-bearing animals. In a typical experiment, 0.1-1×10^6 tumor cells, suspended in PBS containing 20% Matrigel, were injected subcutaneously in the right flank of each mouse. When the tumors became palpable, the animals were randomized into different groups and treatment began. In vivo tests routinely included a vehicle control group and different doses and/or routes of administration of the therapeutic agent. Tumor growth was assessed using calipers and the following formula:
Tumor Volume=length×width×width×½
The Kaplan-Meier analysis was used to estimate the survival probability of the tumor-bearing animals.
C57BL/6 mice were injected subcutaneously in the right flank with 1×10^5 CT26 mouse colorectal tumor cells, suspended in PBS containing 20% Matrigel. The tumors were allowed to grow to −100 mm^3. The mice were randomized into two groups (n=6 animals/group): one group received vehicle control and the other group was treated with i.p. injections of 0.2 mg/kg Compound (6) twice a week (Tuesday-Thursday). The experiment continued for 27 days, at which point the mortality rate of control animals was 80%. […] The experiment was repeated (FIG. 6B). In FIG. 6B, treated animals received oral administrations of 3 mg/kg Compound (6) twice a day.

[2] abbreviates: 3 mg/kg oral twice a day, end of experiment.

Take `O=C(O)/C(=C\c1ccc(F)cc1)C(Cc1ccccc1)C(=O)O` (stereo not shown) [Compound (6), 2-benzyl-3-[(4-flurophenyl)methylidene]butanedioic acid]: at IRG1, the “extracellular levels of itaconic acid” value is listed as “suppressed” and the “intracellular levels of itaconic acid” value is reported as “suppressed”. The “proliferation of TCR-activated hCD8+ T cells” value in the test with hCD8^+ T cells is “increased proliferation”. The “survival (Kaplan-Meier)” value in test [1] (0.2 mg/kg i.p. twice a week, 27 days, vs vehicle control) is listed as “survival advantage”. Besides, in test [1] (setting [2]), the “animals with complete tumor regression” value was 1/6 and the “mice with slower tumor growth” value is reported as 5/6. Also, the “survival (Kaplan-Meier)” value in test [1] (3 mg/kg orally twice a day) was “increased survival”.

For the origin of these results see patent publication US20210261495A1, “COMPOSITIONS AND METHODS OF USING ITACONIC ACID DERIVATIVES” (ERGON PHARMACEUTICALS, LLC, priority 2018, published 2021).
